Measured values published in patent US10842762B2, “Method of treating cardiovascular events using colchicine concurrently with an antiplatelet agent” (Murray and Poole Enterprises, LTD., priority 2012, dated 2020).

Legend:
[1] = test system: patients with a first episode of recurrent pericarditis; conditions: at 18 months; conventional treatment with aspirin plus colchicine (1.0-2.0 mg first day, then 0.5-1.0 mg/d for 6 months); vs 50.6% with conventional treatment; cited from earlier work
[2] = test system: patients with objectively diagnosed and clinically stable coronary disease; assay: LoDoCo Trial: prospective randomized observer blinded end-point trial of colchicine 0.5 mg/day added to standard secondary prevention therapies
Procedure: To assess the therapeutic effects of an immediate release formulation in patients with cardiovascular disease, a prospective randomized observer blinded end-point trial was conducted to determine whether adding 0.5 mg/day of colchicine to standard secondary prevention therapies including aspirin and high dose statins reduces the risk of cardiovascular events in patients with objectively diagnosed and clinically stable coronary disease.
Eligible consenting patients with established coronary disease presenting for routine clinical review were randomized to receive colchicine 0.5 mg/day or no colchicine without any other change to their medical therapy. All outcomes were evaluated by an experienced adjudicator blinded to the treatment allocation.
It was planned to recruit a study population that would include 500 patients planned (532 patients randomized as 32 dropped out early), 250 randomized to the control group and 250 patients randomized to treatment who were tolerant of colchicine for at least 4 weeks after the date of their randomization. Patients were eligible for inclusion if they met each of the following criteria: 1) angiographically proven coronary disease; 2) aged 35 to 85 years; 3) clinically stable for at least 6 months, 4) no major competing co-morbidities or contra-indication to colchicine therapy, 5) considered to be compliant with therapy and attending routine cardiology follow up appointments, and 6) willing to be consented and randomized into the study. Patients with a history of bypass surgery were only eligible if they had undergone bypass surgery more than 10 years before, or had angiographic evidence of graft failure or had undergone stenting since their bypass surgery. All patients signed informed consent before randomization.
The randomization sequence was computer generated, kept concealed from the investigators at all times and was managed by a research assistant who had no involvement in the evaluation or management of study patients. […] Despite electing to use the lowest dose of colchicine available, it was anticipated that a number of patients would withdraw from therapy early after randomization due to gastrointestinal side effects. In order to ensure that the requisite number of patients in the treatment arm were actually tolerant of treatment, the protocol allowed for the research assistant to assign a newly recruited patient to treatment if a patient discontinued colchicine due to side effects in the first month. Patients who were intolerant to therapy remained in the study, and were followed in the usual manner and included in the primary intention to treat analysis.
The drug was dispensed by their usual chemist, and if requested, patients were reimbursed for the cost of these scripts. All other treatments were continued as usual.
Patient compliance with treatment and outcome data were collected at routine follow up visits and at the time of any unplanned hospital admission. An acute coronary syndrome (ACS) was defined as either (a) Acute Myocardial Infarction (AMI), as evidenced by acute ischemic chest pain associated with a rise in serum troponin above the upper limit of normal or (b) Unstable Angina (UA), as evidenced by a recent acceleration of the patient's angina unassociated with a rise in serum troponin but associated with angiographic evidence of a change in the patient's coronary anatomy. […] The ACS was characterized as being stent-related if there was evidence of significant in-stent stenosis or acute stent thrombosis. Out of Hospital Cardiac Arrest was defined as either a sudden death as evidenced on the patient's death certificate, or a non-fatal out of hospital cardiac arrest, defined as a recovery from sudden collapse associated with documented asystole, ventricular tachycardia or ventricular fibrillation.

[3] = No treatment (no antithrombotic), n=1
[4] = Treated with Aspirin + clopidogrel + warfarin, n=2
[5] = Treated with Aspirin + clopidogrel, n=33
[6] = Treated with Aspirin + warfarin, n=6
[7] = Treated with Aspirin alone, n=173
[8] = Treated with Clopidogrel alone or warfarin alone (no aspirin), n=28
[9] = Treated with Clopidogrel alone, n=12
[10] = Treated with Warfarin alone, n=16
[11] = Treated with at least aspirin, n=214
[12] = Treated with at least one antiplatelet drug (aspirin, clopidogrel or combinations), n=226
[13] = Treated with at least one antithrombotic drug (aspirin, clopidogrel or warfarin or combinations), n=242
[14] = of 282 randomized to treatment, colchicine 0.5 mg/day

## COc1cc2c(c(OC)c1OC)-c1ccc(OC)c(=O)cc1[C@@H](NC(C)=O)CC2 [colchicine, N[5,6,7,9-tetrahydro-1,2,3,10-tetratmethoxy 9-oxobenzo[a]heptalen-7-yl],(S)-acetamide]
[1]
  recurrence rate (actuarial rate): 24.0%
[2]; 2 in each group
  stent related ACS with evidence of acute stent thrombosis, patients: 2
  stent related ACS with evidence of significant in-stent stenosis, patients: 2
[2]; [3]
  Primary Outcome, number of patients: 0
  Primary Outcome, percent: (0%)
[2]; Total, colchicine group n=243
  Primary Outcome, number of patients: 11
  Primary Outcome, percent: (4.5%)
[2]; [4]
  Primary Outcome, number of patients: 0
  Primary Outcome, percent: (0%)
[2]; [5]
  Primary Outcome, number of patients: 3
  Primary Outcome, percent: (9%)
[2]; [6]
  Primary Outcome, number of patients: 0
  Primary Outcome, percent: (0%)
[2]; [7]
  Primary Outcome, number of patients: 7
  Primary Outcome, percent: (4%)
[2]; [8]
  Primary Outcome, number of patients: 1
  Primary Outcome, percent: (3.45%)
[2]; [9]
  Primary Outcome, number of patients: 1
  Primary Outcome, percent: (8.3%)
[2]; [10]
  Primary Outcome, number of patients: 0
  Primary Outcome, percent: (0%)
[2]; [11]
  Primary Outcome, number of patients: 10
  Primary Outcome, percent: (4.67%)
[2]; [12]
  Primary Outcome, number of patients: 11
  Primary Outcome, percent: (4.9%)
[2]; [13]
  Primary Outcome, number of patients: 11
  Primary Outcome, percent: 4.5%
[2]; Treated with at least one antithrombotic drug (aspirin, clopidogrel or warfarin or combinations), n=242, listed as Colchicine
  Primary Outcome, percent: (4.5%)
[2]; colchicine group, all deaths
  patients who died of non-cardiac causes: 4 patients
[2]; colchicine group, control group ten
  patients who died: 4 patients
[2]; colchicine vs control, 95% CI 0.08-0.76, p=0.014
  AMI unrelated to stent disease, hazard ratio: 0.25
[2]; colchicine vs control, 95% CI 0.10-0.75, p=0.011
  UA unrelated to stent disease, hazard ratio: 0.27
[2]; colchicine vs control, 95% CI 0.12-0.55, p<0.001
  ACS unrelated to stent disease, hazard ratio: 0.26
[2]; colchicine vs control, 95% CI 0.18-0.63, p<0.001
  ACS, hazard ratio: 0.33
[2]; intention-to-treat, colchicine vs control
  primary outcome, number needed to treat: 11
[2]; intention-to-treat, colchicine vs control, 95% CI 0.18-0.59, p<0.001
  primary outcome, hazard ratio: 0.33
[2]; intention-to-treat, colchicine 0.5 mg/day, median follow up 36 months, control 16%
  primary outcome, percent of patients: 5.3%
[2]; intention-to-treat, colchicine 0.5 mg/day, median follow up 36 months, control 40/250
  primary outcome (ACS, out of hospital cardiac arrest or non-cardio-embolic ischemic stroke), patients with event / patients assigned: 15/282
[2]; intention-to-treat, control 5.6%
  ACS unrelated to stent disease associated with an AMI, percent: 1.4%
[2]; intention-to-treat, control 6.4%
  ACS unrelated to stent disease, UA, percent: 1.8%
[2]; intention-to-treat, control 12%
  ACS unrelated to stent disease, percent: 3.2%
[2]; intention-to-treat, control 13.4%
  patients presenting with an ACS, percent: 4.6%
[2]; intention-to-treat, control 14/250
  ACS unrelated to stent disease associated with an AMI, patients / patients assigned: 4/282
[2]; intention-to-treat, control 16/250
  ACS unrelated to stent disease, UA, patients / patients assigned: 5/282
[2]; intention-to-treat, control 30/250
  ACS unrelated to stent disease, patients / patients assigned: 9/282
[2]; intention-to-treat, control 34/250
  patients presenting with an ACS / patients assigned: 13/282
[2]; [14]
  early intolerance due to gastrointestinal side effects, patients: 32
  early intolerance due to gastrointestinal side effects, percent: 11%
[2]; on-treatment analysis vs control, 95% CI 0.15-0.56, p<0.001
  events (primary outcome), hazard ratio: 0.29
[2]; on-treatment analysis: compliant and tolerant beyond the first month, control 16%
  events (primary outcome), percent: 4.5%
[2]; on-treatment analysis: compliant and tolerant to therapy beyond the first month, control 40/250
  events (primary outcome), patients / patients compliant and tolerant: 11/243
[2]; treatment group vs control, infrequent events
  out of hospital cardiac arrest and non-cardio-embolic ischemic stroke: also reduced
